From patent US12398093B2, “Compounds and methods for treating inflammatory disorders” (Board of Supervisors of Louisiana State University and …, priority 2019, dated 2025)
Like-named read-outs stand apart in the source and are kept apart here.

Key:
5-HTB = 5-HTB (Rattus norvegicus, UniProt P28564); test: Radioligand binding, antagonist radioligand [125I]CYP
5-HT2A (h) = 5-HT2A (h) (Homo sapiens, UniProt P28223); test: Radioligand binding, agonist radioligand [125I](±)DOI
5-HT7 (h) = molecular target: T1, 5-HT7 (h) (Homo sapiens, UniProt P34969); test: Radioligand binding, agonist radioligand [3H]LSD
T1 construct: membrane preparations

5-HT1D = molecular target: T2, 5-HT1D (Rattus norvegicus, UniProt P28565); test: Radioligand binding, agonist radioligand [3H]serotonin; set-up: species or system human
T2 construct: membrane preparations

human 5-HT2A receptor = molecular target: T3, human 5-HT2A receptor (Homo sapiens, UniProt P28223); test: Gq-mediated calcium transients (calcium mobilization), Fluo-4, HEK cells; format: cell-based
T3 construct: expressed in transfected cells

[1] = In vitro absorption, Caco-2 permeability; format: in vitro ADME; details: human, Caco-2, pH 6.5, Caco-2, pH 6.5/7.4, 1.0×10^−5 M
5-HT2B (h) = 5-HT2B (h) (Homo sapiens, UniProt P41595); test: Radioligand binding, agonist radioligand [125I](±)DOI
5-HT1A (h) = molecular target: T4, 5-HT1A (h) (Homo sapiens, UniProt P08908); test: Radioligand binding, agonist radioligand [3H]8-OH-DPAT
T4 construct: membrane preparations
T4 sequence (P08908 1-422): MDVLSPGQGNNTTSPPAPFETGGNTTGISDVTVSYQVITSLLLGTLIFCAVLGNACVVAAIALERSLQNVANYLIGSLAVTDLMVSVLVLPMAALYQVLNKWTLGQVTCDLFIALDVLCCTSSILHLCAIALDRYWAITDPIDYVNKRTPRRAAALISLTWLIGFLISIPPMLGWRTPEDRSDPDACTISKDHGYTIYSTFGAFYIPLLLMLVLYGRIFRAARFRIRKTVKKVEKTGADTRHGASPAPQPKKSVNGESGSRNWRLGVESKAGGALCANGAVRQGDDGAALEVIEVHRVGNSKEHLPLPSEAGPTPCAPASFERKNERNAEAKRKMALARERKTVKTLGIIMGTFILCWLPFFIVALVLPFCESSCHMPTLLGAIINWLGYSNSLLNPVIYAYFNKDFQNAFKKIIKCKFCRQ

[2] = In vitro protein binding in human plasma; format: in vitro ADME; details: 1.0×10^−5 M; for % Protein bound, 1st / % Protein bound, 2nd / % Protein bound, Mean: human plasma; for recovery: human, plasma, protein binding assay
5-HT2C (h) = molecular target: T5, 5-HT2C (h) (Homo sapiens, UniProt P28335); test: Radioligand binding, agonist radioligand [125I](±)DOI
T5 sequence (P28335 33-458): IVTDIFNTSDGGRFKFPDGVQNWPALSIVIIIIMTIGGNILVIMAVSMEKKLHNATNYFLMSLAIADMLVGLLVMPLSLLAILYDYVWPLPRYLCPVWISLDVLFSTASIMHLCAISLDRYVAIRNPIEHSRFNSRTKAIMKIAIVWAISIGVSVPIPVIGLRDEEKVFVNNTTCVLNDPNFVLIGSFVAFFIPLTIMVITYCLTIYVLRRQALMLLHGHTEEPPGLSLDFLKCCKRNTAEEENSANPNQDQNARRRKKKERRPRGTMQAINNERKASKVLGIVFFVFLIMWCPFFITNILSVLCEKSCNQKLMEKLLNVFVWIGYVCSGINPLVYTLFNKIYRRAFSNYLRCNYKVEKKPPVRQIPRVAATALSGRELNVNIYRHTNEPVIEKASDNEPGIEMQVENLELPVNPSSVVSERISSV

5-HT2AR-Tango construct = molecular target: T6, 5-HT2AR-Tango construct (Homo sapiens, UniProt P28223); test: β-arrestin-2 recruitment, PRESTO-Tango assay in HTLA cells; format: cell-based; details: for Emax: HTLA
T6 construct: expressed in transfected cells; host or cells: HTLA cells (transient transfection)

5-HT6 (h) = molecular target: T7, 5-HT6 (h) (Homo sapiens, UniProt P50406); test: Radioligand binding, agonist radioligand [3H]LSD
T7 construct: membrane preparations

[3] = HEK293, read-out: EMAX (%) calcium mobilization
[4] = read-out: A-B Permeability, 1st
[5] = read-out: A-B Permeability, 2nd
[6] = read-out: A-B Permeability, Mean
[7] = read-out: B-A Permeability, 1st
[8] = read-out: B-A Permeability, 2nd
[9] = read-out: B-A Permeability, Mean
[10] = read-out: EMAX (%) beta arrestin recruitment

T3 sequence (P28223 whole entry): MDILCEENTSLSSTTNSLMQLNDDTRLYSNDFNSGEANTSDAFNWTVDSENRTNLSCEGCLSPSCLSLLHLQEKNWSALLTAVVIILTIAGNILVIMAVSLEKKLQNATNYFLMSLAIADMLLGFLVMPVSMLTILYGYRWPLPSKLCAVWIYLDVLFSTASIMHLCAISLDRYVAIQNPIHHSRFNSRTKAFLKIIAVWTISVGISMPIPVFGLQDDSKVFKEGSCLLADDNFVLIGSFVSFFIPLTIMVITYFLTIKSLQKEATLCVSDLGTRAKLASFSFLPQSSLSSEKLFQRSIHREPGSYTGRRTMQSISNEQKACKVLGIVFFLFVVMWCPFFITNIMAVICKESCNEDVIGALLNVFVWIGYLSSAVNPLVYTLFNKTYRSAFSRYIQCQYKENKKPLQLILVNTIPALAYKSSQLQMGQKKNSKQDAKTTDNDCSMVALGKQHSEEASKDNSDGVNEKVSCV
T6 sequence (P28223 whole entry, added parts left off): as the sequence (P28223 whole entry) above
T6 sequence (P32121 whole entry partner): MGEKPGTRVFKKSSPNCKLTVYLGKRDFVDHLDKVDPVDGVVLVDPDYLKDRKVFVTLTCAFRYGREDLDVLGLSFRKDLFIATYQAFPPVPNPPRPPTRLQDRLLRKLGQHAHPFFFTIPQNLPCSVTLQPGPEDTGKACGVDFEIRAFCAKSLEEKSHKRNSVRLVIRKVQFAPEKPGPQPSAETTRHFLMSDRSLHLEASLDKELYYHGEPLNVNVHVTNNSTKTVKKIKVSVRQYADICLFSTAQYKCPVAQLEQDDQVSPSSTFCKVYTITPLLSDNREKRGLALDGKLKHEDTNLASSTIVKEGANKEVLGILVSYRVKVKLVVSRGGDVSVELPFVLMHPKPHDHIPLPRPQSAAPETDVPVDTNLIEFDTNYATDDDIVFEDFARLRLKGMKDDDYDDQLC
Chain of 5-HT2B (h) (P41595 whole entry): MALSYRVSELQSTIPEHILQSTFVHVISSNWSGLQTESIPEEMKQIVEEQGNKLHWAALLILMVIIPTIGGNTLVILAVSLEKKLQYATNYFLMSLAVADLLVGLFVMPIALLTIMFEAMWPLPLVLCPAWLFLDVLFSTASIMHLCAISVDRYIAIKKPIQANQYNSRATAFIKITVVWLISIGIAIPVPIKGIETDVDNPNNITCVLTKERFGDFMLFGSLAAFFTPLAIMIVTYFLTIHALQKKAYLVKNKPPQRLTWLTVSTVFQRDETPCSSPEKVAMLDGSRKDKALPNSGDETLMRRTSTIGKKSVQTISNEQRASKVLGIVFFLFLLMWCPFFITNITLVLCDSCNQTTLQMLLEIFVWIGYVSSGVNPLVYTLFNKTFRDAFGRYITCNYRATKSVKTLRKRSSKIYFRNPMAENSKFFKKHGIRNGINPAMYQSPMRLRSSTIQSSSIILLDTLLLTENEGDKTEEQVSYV
Chain of 5-HTB (P28564 whole entry): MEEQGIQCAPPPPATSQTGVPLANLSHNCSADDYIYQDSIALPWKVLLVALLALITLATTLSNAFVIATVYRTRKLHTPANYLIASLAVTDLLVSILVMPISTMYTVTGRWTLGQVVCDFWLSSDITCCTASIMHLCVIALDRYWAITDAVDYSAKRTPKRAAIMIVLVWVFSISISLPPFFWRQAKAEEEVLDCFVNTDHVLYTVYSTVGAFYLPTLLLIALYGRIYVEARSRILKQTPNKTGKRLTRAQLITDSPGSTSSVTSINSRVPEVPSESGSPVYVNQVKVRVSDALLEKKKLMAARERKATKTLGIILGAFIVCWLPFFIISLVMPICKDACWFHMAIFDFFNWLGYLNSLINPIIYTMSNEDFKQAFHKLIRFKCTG
Chain of 5-HT2A (h) (P28223 whole entry): as the sequence (P28223 whole entry) above
T2 sequence (P28565 whole entry): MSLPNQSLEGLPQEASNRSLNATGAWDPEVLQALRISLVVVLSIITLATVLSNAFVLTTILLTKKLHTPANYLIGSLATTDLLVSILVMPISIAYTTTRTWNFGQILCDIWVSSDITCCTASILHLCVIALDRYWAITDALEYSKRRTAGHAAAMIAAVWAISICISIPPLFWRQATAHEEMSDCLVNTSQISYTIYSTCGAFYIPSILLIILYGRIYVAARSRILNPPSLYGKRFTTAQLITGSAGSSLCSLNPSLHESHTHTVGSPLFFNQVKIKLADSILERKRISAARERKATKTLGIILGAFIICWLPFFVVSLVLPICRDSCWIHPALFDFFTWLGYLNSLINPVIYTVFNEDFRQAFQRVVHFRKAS
T1 sequence (P34969 whole entry): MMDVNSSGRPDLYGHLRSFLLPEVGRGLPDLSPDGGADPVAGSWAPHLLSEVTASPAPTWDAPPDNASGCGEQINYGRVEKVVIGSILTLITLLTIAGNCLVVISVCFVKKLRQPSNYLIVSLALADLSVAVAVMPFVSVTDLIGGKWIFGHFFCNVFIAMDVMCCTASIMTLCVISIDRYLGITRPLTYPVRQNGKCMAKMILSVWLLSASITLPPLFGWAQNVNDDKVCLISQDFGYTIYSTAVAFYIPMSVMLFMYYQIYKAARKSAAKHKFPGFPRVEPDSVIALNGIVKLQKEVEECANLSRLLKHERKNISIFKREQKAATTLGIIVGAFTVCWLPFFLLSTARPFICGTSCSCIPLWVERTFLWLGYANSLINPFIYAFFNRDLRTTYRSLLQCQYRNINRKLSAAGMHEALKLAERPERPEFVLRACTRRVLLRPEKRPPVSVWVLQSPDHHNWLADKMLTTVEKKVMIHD
T7 sequence (P50406 whole entry): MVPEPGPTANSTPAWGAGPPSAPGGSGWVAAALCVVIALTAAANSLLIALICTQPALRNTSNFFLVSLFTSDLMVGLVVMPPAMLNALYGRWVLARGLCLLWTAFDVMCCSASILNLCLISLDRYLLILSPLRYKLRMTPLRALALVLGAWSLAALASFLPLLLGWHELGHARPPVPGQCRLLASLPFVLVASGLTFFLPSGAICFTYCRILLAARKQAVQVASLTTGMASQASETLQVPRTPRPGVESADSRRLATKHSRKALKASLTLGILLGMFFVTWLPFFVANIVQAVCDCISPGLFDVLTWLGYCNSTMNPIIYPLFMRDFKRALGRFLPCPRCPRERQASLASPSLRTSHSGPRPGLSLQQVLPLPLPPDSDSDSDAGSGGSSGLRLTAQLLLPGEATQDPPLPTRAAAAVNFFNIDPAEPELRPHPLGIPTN

Compound	Ki (5-HTB)	Emax (human 5-HT2A receptor; [3])	recovery ([1]; read-out: % Recovery A-B, 1st)	recovery ([1]; read-out: % Recovery A-B, 2nd)	recovery ([1]; read-out: % Recovery A-B, Mean)	recovery ([1]; read-out: % Recovery B-A, 1st)	recovery ([1]; read-out: % Recovery B-A, 2nd)	recovery ([1]; read-out: % Recovery B-A, Mean)	Papp A→B [1, 4]	Papp A→B [1, 5]	Papp A→B [1, 6]	Papp B→A [1, 7]	Papp B→A [1, 8]	Papp B→A [1, 9]	Ki (5-HT2B (h))	% Protein bound, 1st [2]	% Protein bound, 2nd [2]	% Protein bound, Mean [2]	recovery ([2]; read-out: % Recovery, 1st)	recovery ([2]; read-out: % Recovery, 2nd)	other results
COc1cc(CC(C)C)c(OC)cc1CCN [2C-iBu, 2,5-dimethoxy-4-isobutylphenethylamine]	50.1 nM	88%	45%	48%	46%	70%	72%	71%	10.9 ×10⁻⁶ cm/s	10.6 ×10⁻⁶ cm/s	10.7 ×10⁻⁶ cm/s	7.87 ×10⁻⁶ cm/s	7.92 ×10⁻⁶ cm/s	7.9 ×10⁻⁶ cm/s	15.8 nM	73.7%	74.5%	74%	107%	105%	Ki (5-HT2A (h)): 1.26 nM; Ki (5-HT7 (h)): 316 nM; Ki (5-HT1D): 63.1 nM; EC50 (human 5-HT2A receptor): 2.19 nM; Emax (human 5-HT2A receptor; HEK293, read-out: EMAX Ca^2+): 103%; Ki (5-HT1A (h)): 79.4 nM; recovery ([2]; read-out: % Recovery, Mean): 106%; Ki (5-HT2C (h)): 0.251 nM; EC50 (5-HT2AR-Tango construct): 13.5 nM; Emax (5-HT2AR-Tango construct; Table 3, read-out: EMAX β-arrestin-2): 77%; Emax (5-HT2AR-Tango construct; [10]): 57.4%; Ki (5-HT6 (h)): 1260 nM
COc1cc(C[C@@H](C)N)c(OC)cc1I [R-DOI]	2510 nM	112%	72%	72%	72%	87%	88%	87%	23.7 ×10⁻⁶ cm/s	23.2 ×10⁻⁶ cm/s	23.4 ×10⁻⁶ cm/s	19.1 ×10⁻⁶ cm/s	19.3 ×10⁻⁶ cm/s	19.2 ×10⁻⁶ cm/s	2.51 nM	47.5%	49.6%	49%	126%	126%	recovery ([2]; read-out: % Recovery, Mean): 126%; Ki (5-HT2C (h)): 0.631 nM; Emax (5-HT2AR-Tango construct; [10]): 71.8%
